According to patent US20240245682A1, “ALPHA-V-BETA-8 INTEGRIN INHIBITORS AND USES THEREOF” (Pliant Therapeutics, Inc., priority 2022, published 2024):

Key:
Assay in all cases: AlphaScreen proximity-based integrin binding assay with TGF-b1 LAP
Settings in all cases: values given as ranges
human integrin αVβ1 = human integrin αVβ1 (Homo sapiens, UniProt P05556+P06756)
Experimental: (§1) The biochemical potency of the disclosed compounds was determined using the AlphaScreen® (Perkin Elmer, Waltham, MA) proximity-based assay as described previously (Ullman E F et al., Luminescent oxygen channeling immunoassay: Measurement of particle binding kinetics by chemiluminescence. Proc. Natl. Acad. Sci. USA, Vol. 91, pp. 5426-5430, June 1994, herein incorporated by reference in its entirety). To gauge the potency of inhibitors of binding to each of human integrins αVβ1, αVβ6, and αVβ8, inhibitor compounds were independently incubated with one of αVβ1, αVβ6, or αVβ8, together with TGF-b1 LAP and biotinylated anti-LAP antibody plus acceptor and donor beads, following the manufacture's recommendations. The donor beads were coated with streptavidin. […] All incubations occurred at room temperatures in 50 mM Tris-HCl, pH 7.5, 0.1% BSA supplemented with 1 mM each CaCl2 and MgCl2.
(§2) The order of reagent addition was as follows:
(§3) 1. αVβ1, αVβ6, or αVβ8 integrin, test inhibitor compound, LAP, biotinylated anti-LAP antibody and acceptor beads were all added together.
(§4) 2. After 2 hours, donor beads were added. After another 30 minute incubation, samples were then read.
(§5) Integrin binding was evaluated by exciting donor beads at 680 nm, and measuring the fluorescent signal produced, between 520-620 nm, using a Biotek Instruments (Winooski, VT, USA) SynergyNeo2 multimode plate reader. Compound potency was assessed by determining inhibitor concentrations required to reduce fluorescent light output by 50%. Data analysis for IC50 determinations was carried out by nonlinear four parameter logistic regression analysis using Dotmatics ELN Software (Core Informatics Inc., Branford, Ct). […] Comp #in the Table and Examples below refers to the compound of the corresponding Example number as described in the Synthetic Examples.

human integrin αVβ6 = human integrin αVβ6 (Homo sapiens, UniProt P06756+P18564)
Experimental: as §1, §2, §3, §4, §5

human integrin αVβ8 = human integrin αVβ8 (Homo sapiens, UniProt P06756+P26012)
Experimental: as §1, §2, §3, §4, §5

Chain of human integrin αVβ6 (P06756 31-992 limits assumed): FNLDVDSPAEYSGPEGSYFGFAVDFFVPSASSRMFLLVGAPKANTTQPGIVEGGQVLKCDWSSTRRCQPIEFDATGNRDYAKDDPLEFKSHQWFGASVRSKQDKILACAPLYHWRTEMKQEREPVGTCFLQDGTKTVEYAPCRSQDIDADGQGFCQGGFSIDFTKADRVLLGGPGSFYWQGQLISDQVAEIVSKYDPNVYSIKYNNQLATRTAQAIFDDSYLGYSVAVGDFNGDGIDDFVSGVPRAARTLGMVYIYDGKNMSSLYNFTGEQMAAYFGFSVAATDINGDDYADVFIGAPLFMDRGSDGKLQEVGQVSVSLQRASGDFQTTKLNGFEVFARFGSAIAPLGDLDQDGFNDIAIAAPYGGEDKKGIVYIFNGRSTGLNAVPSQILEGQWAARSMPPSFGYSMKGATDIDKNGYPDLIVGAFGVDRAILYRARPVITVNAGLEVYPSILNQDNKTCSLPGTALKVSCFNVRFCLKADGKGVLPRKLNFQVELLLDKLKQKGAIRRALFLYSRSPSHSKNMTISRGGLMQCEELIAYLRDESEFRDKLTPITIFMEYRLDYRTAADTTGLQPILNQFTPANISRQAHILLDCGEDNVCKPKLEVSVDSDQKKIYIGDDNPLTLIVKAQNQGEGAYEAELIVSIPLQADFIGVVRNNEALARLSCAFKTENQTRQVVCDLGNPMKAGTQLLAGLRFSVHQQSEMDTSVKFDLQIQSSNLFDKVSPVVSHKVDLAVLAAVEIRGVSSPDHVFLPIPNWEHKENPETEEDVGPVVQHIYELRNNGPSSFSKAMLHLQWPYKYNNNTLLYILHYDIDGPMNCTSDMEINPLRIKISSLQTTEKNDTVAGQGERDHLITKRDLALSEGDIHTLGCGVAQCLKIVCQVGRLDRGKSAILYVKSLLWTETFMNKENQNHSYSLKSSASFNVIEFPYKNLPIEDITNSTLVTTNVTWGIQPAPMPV
Chain of human integrin αVβ6 (P18564 22-707 limits assumed): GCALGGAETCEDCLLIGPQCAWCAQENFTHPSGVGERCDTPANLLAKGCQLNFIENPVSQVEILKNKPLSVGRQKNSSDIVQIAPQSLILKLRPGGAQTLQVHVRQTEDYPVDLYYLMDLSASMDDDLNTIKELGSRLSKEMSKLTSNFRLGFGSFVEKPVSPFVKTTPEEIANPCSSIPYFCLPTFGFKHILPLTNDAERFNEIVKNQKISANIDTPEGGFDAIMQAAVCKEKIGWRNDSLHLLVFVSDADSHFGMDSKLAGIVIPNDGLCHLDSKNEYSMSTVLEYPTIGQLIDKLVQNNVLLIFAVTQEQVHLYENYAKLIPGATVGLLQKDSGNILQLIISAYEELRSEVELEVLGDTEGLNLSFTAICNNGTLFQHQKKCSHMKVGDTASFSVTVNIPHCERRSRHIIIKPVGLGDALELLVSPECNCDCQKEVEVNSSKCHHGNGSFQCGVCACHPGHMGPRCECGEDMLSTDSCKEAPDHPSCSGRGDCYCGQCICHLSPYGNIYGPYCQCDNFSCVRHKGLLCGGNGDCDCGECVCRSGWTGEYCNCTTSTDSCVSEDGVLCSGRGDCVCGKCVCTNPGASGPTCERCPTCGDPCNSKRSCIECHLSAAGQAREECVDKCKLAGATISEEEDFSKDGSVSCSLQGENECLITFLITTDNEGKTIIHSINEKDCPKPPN
Chain of human integrin αVβ1 (P06756 31-992 limits assumed): as the sequence (P06756 31-992 limits assumed) above
Chain of human integrin αVβ1 (P05556 21-728 limits assumed): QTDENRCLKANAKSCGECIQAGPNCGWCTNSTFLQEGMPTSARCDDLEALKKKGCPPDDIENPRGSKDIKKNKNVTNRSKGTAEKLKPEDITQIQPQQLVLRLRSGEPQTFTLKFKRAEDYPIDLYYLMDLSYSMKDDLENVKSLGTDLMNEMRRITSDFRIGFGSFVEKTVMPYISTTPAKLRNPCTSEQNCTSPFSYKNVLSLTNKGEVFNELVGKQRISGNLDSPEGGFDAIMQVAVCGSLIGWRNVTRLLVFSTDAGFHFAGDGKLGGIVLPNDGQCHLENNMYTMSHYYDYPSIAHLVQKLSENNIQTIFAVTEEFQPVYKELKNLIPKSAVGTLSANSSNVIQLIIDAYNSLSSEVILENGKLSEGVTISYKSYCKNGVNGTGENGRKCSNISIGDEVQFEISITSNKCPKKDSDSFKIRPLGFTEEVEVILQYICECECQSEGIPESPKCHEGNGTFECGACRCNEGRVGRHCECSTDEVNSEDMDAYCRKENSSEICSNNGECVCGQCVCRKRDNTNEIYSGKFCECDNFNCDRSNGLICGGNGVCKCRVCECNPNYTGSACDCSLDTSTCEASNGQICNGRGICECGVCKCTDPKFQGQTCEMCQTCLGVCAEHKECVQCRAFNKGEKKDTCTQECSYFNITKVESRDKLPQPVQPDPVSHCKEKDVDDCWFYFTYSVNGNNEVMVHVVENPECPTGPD
Chain of human integrin αVβ8 (P06756 31-992 limits assumed): as the sequence (P06756 31-992 limits assumed) above
Chain of human integrin αVβ8 (P26012 43-684 limits assumed): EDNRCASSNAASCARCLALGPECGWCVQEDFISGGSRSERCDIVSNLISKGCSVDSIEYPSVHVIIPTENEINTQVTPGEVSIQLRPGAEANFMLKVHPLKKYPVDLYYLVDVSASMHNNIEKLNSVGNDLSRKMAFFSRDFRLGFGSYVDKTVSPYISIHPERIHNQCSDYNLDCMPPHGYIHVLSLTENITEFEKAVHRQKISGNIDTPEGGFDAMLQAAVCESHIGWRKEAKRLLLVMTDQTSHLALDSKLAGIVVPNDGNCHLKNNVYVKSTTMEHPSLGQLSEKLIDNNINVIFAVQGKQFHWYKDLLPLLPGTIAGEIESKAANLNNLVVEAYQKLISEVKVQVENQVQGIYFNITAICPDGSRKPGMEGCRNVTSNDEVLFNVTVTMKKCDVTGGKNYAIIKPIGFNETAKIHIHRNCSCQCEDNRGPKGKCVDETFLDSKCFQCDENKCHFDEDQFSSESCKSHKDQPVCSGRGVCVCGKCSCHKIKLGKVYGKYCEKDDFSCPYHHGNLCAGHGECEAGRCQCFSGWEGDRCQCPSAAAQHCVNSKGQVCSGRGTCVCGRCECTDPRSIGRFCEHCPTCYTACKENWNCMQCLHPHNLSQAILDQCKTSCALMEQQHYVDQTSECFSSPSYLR

Compound | IC50 (human integrin αVβ1) | IC50 (human integrin αVβ6) | IC50 (human integrin αVβ8)
O=C(O)[C@H](CCOCCCCc1ccc2c(n1)NCCC2)NC(=O)C1(c2cc(F)cnc2F)CC1 [Compound 21, N-(1-(2,5-difluoropyridin-3-yl)cyclopropane-1-carbonyl)-O-(4-(5,6,7,8-tetrahydro-1,8-naphthyridin-2-yl)butyl)-L-homoserine] | < 50 nM | 150 to 250 nM | < 50 nM
O=C(N[C@@H](CCOCCCCc1ccc2c(n1)NCCC2)C(=O)O)c1ccnn1-c1ccccc1 [Compound 99, N-(1-phenyl-1H-pyrazole-5-carbonyl)-O-(4-(5,6,7,8-tetrahydro-1,8-naphthyridin-2-yl)butyl)-L-homoserine] | < 50 nM | < 50 nM | 50 to 150 nM
O=C(O)[C@H](CCOCCCCc1ccc2c(n1)NCCC2)NC(=O)C1(n2cncc2C(F)F)CC1 [Compound 64, N-(1-(5-(difluoromethyl)-1H-imidazol-1-yl)cyclopropane-1-carbonyl)-O-(4-(5,6,7,8-tetrahydro-1,8-naphthyridin-2-yl)butyl)-L-homoserine] | < 50 nM | ≥ 500 nM | 50 to 150 nM
COc1cccc(=O)n1C1(C(=O)N[C@@H](CCOCCCCc2ccc3c(n2)NCCC3)C(=O)O)CC1 [Compound 92, N-(1-(6-methoxy-2-oxopyridin-1(2H)-yl)cyclopropane-1-carbonyl)-O-(4-(5,6,7,8-tetrahydro-1,8-naphthyridin-2-yl)butyl)-L-homoserine] | 50 to 150 nM | > 500 nM | 50 to 150 nM
N#Cc1cncc(C2(C(=O)N[C@@H](CCOCCCCc3ccc4c(n3)NCCC4)C(=O)O)CC2)c1 [Compound 27, N-(1-(5-cyanopyridin-3-yl)cyclopropane-1-carbonyl)-O-(4-(5,6,7,8-tetrahydro-1,8-naphthyridin-2-yl)butyl)-L-homoserine] | < 50 nM | ≥ 500 nM | 150 to 250 nM
O=C(O)[C@H](CCOCCCCc1ccc2c(n1)NCCC2)NC(=O)C1(c2cn[nH]c2Cl)CC1 [Compound 74, N-(1-(5-chloro-1H-pyrazol-4-yl)cyclopropane-1-carbonyl)-O-(4-(5,6,7,8-tetrahydro-1,8-naphthyridin-2-yl)butyl)-L-homoserine] | < 50 nM | ≥ 500 nM | < 50 nM
Cc1ncnc(C)c1C1(C(=O)N[C@@H](CCOCCCCc2ccc3c(n2)NCCC3)C(=O)O)CC1 [Compound 41, N-(1-(4,6-dimethylpyrimidin-5-yl)cyclopropane-1-carbonyl)-O-(4-(5,6,7,8-tetrahydro-1,8-naphthyridin-2-yl)butyl)-L-homoserine] | < 50 nM | ≥ 500 nM | 50 to 150 nM
O=C(O)[C@H](CCOCCCCc1ccc2c(n1)NCCC2)NC(=O)C1(c2cncnc2)CC1 [Compound 22, N-(1-(pyrimidin-5-yl)cyclopropane-1-carbonyl)-O-(4-(5,6,7,8-tetrahydro-1,8-naphthyridin-2-yl)butyl)-L-homoserine] | < 50 nM | ≥ 500 nM | 150 to 250 nM
O=C(O)[C@H](CCOCCCCc1ccc2c(n1)NCCC2)NC(=O)C1(c2cccnc2C(F)F)CC1 [Compound 57, N-(1-(2-(difluoromethyl)pyridin-3-yl)cyclopropane-1-carbonyl)-O-(4-(5,6,7,8-tetrahydro-1,8-naphthyridin-2-yl)butyl)-L-homoserine] | < 50 nM | ≥ 500 nM | 50 to 150 nM
COc1ncnc(Cl)c1C1(C(=O)N[C@@H](CCOCCCCc2ccc3c(n2)NCCC3)C(=O)O)CC1 [Compound 62, N-(1-(4-chloro-6-methoxypyrimidin-5-yl)cyclopropane-1-carbonyl)-O-(4-(5,6,7,8-tetrahydro-1,8-naphthyridin-2-yl)butyl)-L-homoserine] | < 50 nM | ≥ 500 nM | < 50 nM
O=C(O)[C@H](CCOCCCCc1ccc2c(n1)NCCC2)NC(=O)C1(c2ncnc3ccccc23)CC1 [Compound 31, N-(1-(quinazolin-4-yl)cyclopropane-1-carbonyl)-O-(4-(5,6,7,8-tetrahydro-1,8-naphthyridin-2-yl)butyl)-L-homoserine] | < 50 nM | ≥ 500 nM | < 50 nM
O=C(O)[C@H](CCOCCCCc1ccc2c(n1)NCCC2)NC(=O)C1(n2c(Cl)cccc2=O)CC1 [Compound 65, N-(1-(6-chloro-2-oxopyridin-1(2H)-yl)cyclopropane-1-carbonyl)-O-(4-(5,6,7,8-tetrahydro-1,8-naphthyridin-2-yl)butyl)-L-homoserine] | < 50 nM | ≥ 500 nM | < 50 nM
O=C(N[C@@H](CCOCCCCc1ccc2c(n1)NCCC2)C(=O)O)c1cnn(-c2ccccc2)c1 [Compound 98, N-(1-phenyl-1H-pyrazole-4-carbonyl)-O-(4-(5,6,7,8-tetrahydro-1,8-naphthyridin-2-yl)butyl)-L-homoserine] | 50 to 150 nM | > 500 nM | 250 to 500 nM
O=C(O)[C@H](CCOCCCCc1ccc2c(n1)NCCC2)NC(=O)C1(c2ccccc2)CC1 [Compound 10, N-(1-phenylcyclopropane-1-carbonyl)-O-(4-(5,6,7,8-tetrahydro-1,8-naphthyridin-2-yl)butyl)-L-homoserine] | < 50 nM | ≥ 500 nM | 50 to 150 nM
N#Cc1cccnc1C1(C(=O)N[C@@H](CCOCCCCc2ccc3c(n2)NCCC3)C(=O)O)CC1 [Compound 32, N-(1-(3-cyanopyridin-2-yl)cyclopropane-1-carbonyl)-O-(4-(5,6,7,8-tetrahydro-1,8-naphthyridin-2-yl)butyl)-L-homoserine] | < 50 nM | ≥ 500 nM | < 50 nM
COc1ccc(Cl)c(C2(C(=O)N[C@@H](CCOCCCCc3ccc4c(n3)NCCC4)C(=O)O)CC2)n1 [Compound 26, N-(1-(3-chloro-6-methoxypyridin-2-yl)cyclopropane-1-carbonyl)-O-(4-(5,6,7,8-tetrahydro-1,8-naphthyridin-2-yl)butyl)-L-homoserine] | < 50 nM | 250 to 500 nM | < 50 nM
Cc1nc(C)c(C2(C(=O)N[C@@H](CCOCCCCc3ccc4c(n3)NCCC4)C(=O)O)CC2)c(Cl)n1 [Compound 60, N-(1-(4-chloro-2,6-dimethylpyrimidin-5-yl)cyclopropane-1-carbonyl)-O-(4-(5,6,7,8-tetrahydro-1,8-naphthyridin-2-yl)butyl)-L-homoserine] | < 50 nM | ≥ 500 nM | < 50 nM
O=C(O)[C@H](CCOCCCCc1ccc2c(n1)NCCC2)NC(=O)C1(n2c(F)cccc2=O)CC1 [Compound 93, N-(1-(6-fluoro-2-oxopyridin-1(2H)-yl)cyclopropane-1-carbonyl)-O-(4-(5,6,7,8-tetrahydro-1,8-naphthyridin-2-yl)butyl)-L-homoserine] | < 50 nM | > 500 nM | < 50 nM
CC(C)(C(=O)N[C@@H](CCOCCCCc1ccc2c(n1)NCCC2)C(=O)O)c1c(F)cccc1OC(F)F [Compound 5, N-(2-(2-(difluoromethoxy)-6-fluorophenyl)-2-methylpropanoyl)-O-(4-(5,6,7,8-tetrahydro-1,8-naphthyridin-2-yl)butyl)-L-homoserine] | < 50 nM | ≥ 500 nM | 50 to 150 nM
COc1nccc(Cl)c1C1(C(=O)N[C@@H](CCOCCCCc2ccc3c(n2)NCCC3)C(=O)O)CC1 [Compound 44, N-(1-(4-chloro-2-methoxypyridin-3-yl)cyclopropane-1-carbonyl)-O-(4-(5,6,7,8-tetrahydro-1,8-naphthyridin-2-yl)butyl)-L-homoserine] | < 50 nM | ≥ 500 nM | 50 to 150 nM
COc1ccc(F)c(F)c1C(C)(C)C(=O)N[C@@H](CCOCCCCc1ccc2c(n1)NCCC2)C(=O)O [Compound 4, N-(2-(2,3-difluoro-6-methoxyphenyl)-2-methylpropanoyl)-O-(4-(5,6,7,8-tetrahydro-1,8-naphthyridin-2-yl)butyl)-L-homoserine] | 50 to 150 nM | ≥ 500 nM | 150 to 250 nM
CC(C)(C(=O)N[C@@H](CCOCCCCc1ccc2c(n1)NCCC2)C(=O)O)c1ccccc1Cl [Compound 8, N-(2-(2-chlorophenyl)-2-methylpropanoyl)-O-(4-(5,6,7,8-tetrahydro-1,8-naphthyridin-2-yl)butyl)-L-homoserine] | < 50 nM | ≥ 500 nM | 50 to 150 nM
Cc1cc(Cl)n(C2(C(=O)N[C@@H](CCOCCCCc3ccc4c(n3)NCCC4)C(=O)O)CC2)n1 [Compound 72, N-(1-(5-chloro-3-methyl-1H-pyrazol-1-yl)cyclopropane-1-carbonyl)-O-(4-(5,6,7,8-tetrahydro-1,8-naphthyridin-2-yl)butyl)-L-homoserine] | < 50 nM | ≥ 500 nM | < 50 nM
